# Laboratory results as given in patent US20060275299A1, “Use of protein tyrosine phosphatase inhibitors for prevention and/or treatment of cancer” (priority 2002, published 2006).
# Columns and labels:
# Format in all cases: cell-based, human
# Sap-1 [1] = experiment: DTT treatment of Sap-1 overexpressing COS7 cells, multimers on non-reducing gel
# Protocol: Cells treated with DTT were serum-starved 8 hours after transfection (with PTP-Sap1 constructs or vector), and then incubated for 30 minutes in serum-free medium with various amount of DTT (Sigma). Before lysis in a buffer containing 150 mM iodoacetamide (“IODA” Sigma), cells were washed with ice cold PBS containing 50 mM iodoacetamide in order to block the free DTT. Samples were run under reducing and non-reducing conditions, with or without β-mercaptoethanol in the sample buffer, respectively.
# Sap-1 [2] = experiment: Chemical cross-linking of Sap-1 constructs in transfected COS7 cells (Western blot); conditions: for cross-linking of ECD-deleted Sap-1 / cross-linking of full-length (FL) Sap-1: anti-HA Western blot, FIG. 5
# Protocol: COS 7 cells were transfected with the indicated construct and left for 24 hours at 37° C. Medium was changed and a solution of BS3 (Pierce) in PBS (2.5 mg/ml) or PBS alone was added, and left for 1 hour at 4° C. The cross-linking reaction was stopped by the addition of PBS that contained 0.15 M Tris pH 7.5 for 15 minutes at 4° C. Cells were finally lysed and the protein content was used for further analysis. The treatment with DSS (Pierce) was the same except that the product was dissolved in DMSO at a concentration of 25 mM (10×). It was then diluted in PBS and cells were incubated with 0.1×DMSO.
# WiDr cells = experiment: Streptolysin transfection of antisense ODN and BrdU proliferation assay; conditions: BrdU, streptolysin-O, ODN 1 mM final
molecule,measurement,setting,value
"O[C@H](CS)[C@H](O)CS (racemic) [DTT, Dithiothreitol]",reversibility of multimer disruption,"Sap-1 [1]; 30 minutes at 50 mM DTT, washout, 15 minutes recovery without DTT",fully restored formation of the multimers
same,multimerized Sap-1 on non-reducing gel,"Sap-1 [1]; cells incubated 30 minutes in DTT, FIG. 6B",dose-dependent decrease
"O=C(CCCCCCC(=O)ON1C(=O)CC(S(=O)(=O)O)C1=O)ON1C(=O)CC(S(=O)(=O)O)C1=O (stereo not drawn) [BS3, Bis-Sulfosuccinimidyl-Suberate]",cross-linking of ECD-deleted Sap-1,Sap-1 [2],no effect
same,cross-linking of full-length (FL) Sap-1,Sap-1 [2],induces the formation of a complex with high MW
same,cross-linking of FLEX-Cterm Sap-1 construct,"Sap-1 [2]; anti-Myc Western blot, FIG. 8A",efficiently cross-linked
"O=C(CCCCCCC(=O)ON1C(=O)CCC1=O)ON1C(=O)CCC1=O [DSS, Di-Succinimidyl-Suberate]",cross-linking of membrane-associated ECD-deleted Sap-1 lacking transmembrane domain (lck myristoylation peptide),Sap-1 [2]; FIG. 5B right panel,could not be cross-linked
same,cross-linking of ECD-deleted Sap-1,Sap-1 [2],but not ECD-deleted Sap-1
same,cross-linking of full-length (FL) Sap-1,Sap-1 [2],able to cross-link
AS2: antisense ODN to PTP-SAP1 mRNA: TGACCCGGGTCCAAGGCCAT (antisense TGACCCGGGTCCAAGGCCAT; chemistry not given here),reduction of the proliferation,WiDr cells,20%
